Assays:
white outbred male rats [1] = experiment: Open field test under stress; settings: for Exits to the center of the field / Horizontal activity / Surveyed holes / Vertical activity: 40 min after dosing, 3 min observation
Procedure: The “open field” test uses a method of creating stress based on a rat's fear of new surroundings, open space and bright illumination.
An open field setup used in this study consisted of a one meter square box (1 m×1 m×1 m) with a clear top. The floor of the chamber was uniformly divided by lines into 9 squares, with 16 2.5 cm diameter holes. Before the experiment, rats were kept in the dark for 10 minutes, after which they were placed onto one of the peripheral squares of the open field. […] During the experiment the following information was recorded: the number of crossed squares on the periphery and in the center (separately), the number of vertical stands, the number of times holes were surveyed, and the number of exits to the center of the open field.
The main indicator of anxiolytic effect of the drugs was the measure of number of exits by the rat to the center of illuminated field. Increase or decrease in the number of horizontal or vertical movements reflected sedative or stimulating effect of the drug, while the number of holes surveyed reflects orientation-investigative behavior of the rat.
Experiments were conducted using white outbred male rats weighing 240 g to 280 g. Before the beginning of the test, experimental animals were randomly separated into groups containing at least 10 rats. […] Rats in the control group received 0.2 ml water per 100 g mass administered intraperitoneally. Data was recorded beginning 40 minutes after administering the compounds.

outbred white male rats = experiment: Vogel conflict situation test (punishable drinkings); format: in vivo, rat; settings: for No. of punishable drinkings: 40 min before test, 10 min registration
Procedure: 93-113). Such conflict situations most frequently lead to stress and neurotic diseases.
The tests were conducted using outbred white male rats with body weights between 220 g and 250 g. […] The conflict situation was created by suppressing the drinking reflex during water consumption from the drinking tube using algesic electric stimulus (i.e., electric shock causing pain). Thus, the Vogel conflict method is based on the conflict of two motivations: drinking and defensive. Thus, the animal fears punishment when attempting to satisfy its thirst, and that fear suppresses typical animal behavior. The animal cannot satisfy its thirst, creating an imbalance between what is desirable and what is real, thereby resulting in a stressful situation, accompanied by anxiety and fear of receiving an additional algesic electric stimulus. If a test compound has anxiolytic effect, it will enable the animal to overcome anxiety and fear of the punishment factor, restoring the ability to drink despite the possibility of receiving additional algesic electric stimuli, measured as an increase in incidents of punishable responses, i.e., drinking, despite the continued risk of receiving algesic electric stimuli.
The experimental setup consists of three parts: 4 experimental chambers, an electronic unit and a counting device. The experimental chamber measures 275×275×450 mm and is made of Plexiglas. It is installed on a standard electrode floor made of 4 mm diameter stainless steel rods spaced by 8-10 mm apart. Attached to the side wall of each chamber is a standard drinking tube attached to a glass container including a stainless steel nipple. In the device, the drinking tube is installed within common space of the chamber, not in the darkened section. The nipple extends 2 cm into the chamber at a height of 5 cm from the floor. The reason for such arrangement is that once exposed to a new environment, the animals instinctively attempt to hide in the dark section, and therefore may accidentally find a drinking tube, not as a consequence of purposeful search to satisfy the motivation. The electrode floor and the nipple of the drinking tube are connected to the electronic unit. The electronic unit contains current stabilizers (one per channel, which provides the possibility of independent current regulation), output signal generators for the counting device and delay generators for supplying punishing current to the drinking tube during the day of the experiment. That arrangement permits registration of non-punishable drinkings while establishing a drinking habit (trainings without supplying current to the drinking tubes), administration of a punishment current, and recordation of signals from punishable drinkings during the experiment.
The counting device enables registration of non-punishable drinkings during training and punishable drinkings during the experiment. Registration of readings was conducted using Pentium III personal computer with a 550 MHz C.P.U., a special device for converting output signals from the electronic unit into standard pulses suitable for inputting to the computer via a serial port, and a program written in BASIC (Beginner's All-Purpose Symbolic Instruction Code) for recording events and time intervals into disc files. The data accumulated in these files was later analyzed with the statistical package Statistica® for Windows®.
The experiment was conducted for 3 days. On the first day, the animals were completely deprived of water. On the second day, i.e., after 24-hours without water, animals were allowed to establish a habit of taking water from the drinking tube. To achieve this, animals were placed in the experimental chamber for 5 minutes. Typically, each animal surveyed the chamber and after a period of time found a drinking tube and started to drink. On the […] day, a weak current of 50 μA was applied to the drinking tube and the chamber floor. […]

white outbred male rats [2] = experiment: Elevated plus-maze (EPM) in rats; settings: for Latent time / Number of entries into bright arms / Number of entries into dark arms / Time in bright arms / Total number of crossings: 40 min after dosing, 5 min observation
Procedure: The model is based on stress and fear, which appear in animals while displaying orientation-investigative behavior and burrowing reflex under the complicated conditions of elevated plus-maze (novelty of surroundings, fear of height and illumination).
EPM for rats is performed in a chamber consisting of four compartments formed by the crossing of two strips measuring 50×10 cm. Two opposing compartments have vertical walls 40 cm high (protected dark arms), while two others (unprotected open bright arms) are free from protective walls. The maze is elevated 50 cm off the floor. At the center of the chamber where the two strips cross, there is a central platform measuring 10×10 cm. Rats were placed on the central platform with their tails facing an open bright arm. Time remaining on the central platform, time spent by the animals inside the open arms, and the number of entries into open and closed arms were recorded. The total observation time for each animal was 5 minutes. The main criterion of anxiolytic effect is the measure of time spent in the open bright arm of the setup. The number of crossings the central platform (number of entries into the dark and bright arms of the maze and the sum thereof) was used to estimate the effect of compounds on orientation-investigative behavior and motion activity of rats.
Experiments were conducted using white outbred male rats weighing 240 g to 280 g. Before beginning the test, experimental animals were randomly separated into groups of at least 10 rats. […] Rats in the control group received 0.2 ml water per 100 g mass administered intraperitoneally. Data was recorded beginning forty minutes after administration of the compounds.

NMDA receptors = settings: cerebral neurons in rats; cited from earlier work
SAM-P/10 mice = experiment: Elevated plus-maze in SAM-P/10 mice with genetically determined anxiety; format: in vivo, mouse; settings: 11-month old SAM-P/10 mice; for Latent time / Number of entries into bright arms / Number of entries into dark arms / Time in bright arms / Total number of crossings: 40 min prior to testing, 5 min observation
Text: One of the modern methods of studying the anxiolytic effect of drugs uses a mouse strain with an increased level of anxiety. This study utilized mice of the SAM-P/10 line (Takeda, T., et al., “Senescence-Accelerated Mouse (SAM): A Novel Murine Model of Accelerated Senescence,” J. Amer. Geriatr. Soc., 1991, v. 39, pp. 911-919) weighing between 26 g and 31 g, in which, among other changes, a genetically determined anxiety is observed. […] Those symptoms actively accumulate beginning from the age of 6-months (accelerated aging) (Miyamoto, M., “Indicators of age-related behavioral changes in Senescence-Accelerated Mouse SAMP8 and SAMP10,” Exp. Gerontol., 1997, v. 32, pp. 139-148; and Shimada, A., et al., “Age-related deterioration in conditional avoidance task in the SAM-P/10 mouse, an animal model of spontaneous brain atrophy,” Brain Res., 1993, v. 608, pp. 266-272).
This study utilized SAM-P/10 (Senescence-Accelerated Mouse P10) mice in two age groups—3-months and 11-months old. A group of 3-month old animals and a group of 11-month old animals were each divided into three subgroups: one group received Dimebon at a dose of 0.05 mg/kg, the second group received Dimebon at a dose of 2 mg/kg, and the third group received physiological saline. All substances were administered intraperitoneally 40 minutes prior to testing in the amount of 0.1 ml per 10 g of mouse weight. This study was conducted during the first half of the day from 10:00 a.m. to 2:00 p.m.
The maze is elevated 30 cm off the floor. […] Time spent by mice in the open arms of the maze was used as a main indicator of anxiety level.

AMPA receptors = settings: cerebral neurons in rats; cited from earlier work

CN1C(=O)CN=C(c2ccccc2)c2cc(Cl)ccc21 [Diazepam ®, reference compound]
Effect on horizontal and vertical motion activity within the open field (in words) (white outbred male rats [1]; 2 mg/kg): significantly suppressed | Exits to the center of the field (white outbred male rats [1]; 2 mg/kg i.p.): 1.8 ± 0.3 | Horizontal activity (white outbred male rats [1]; 2 mg/kg i.p.): 10.2 ± 1.4 | Surveyed holes (white outbred male rats [1]; 2 mg/kg i.p.): 6.5 ± 1.9 | Vertical activity (white outbred male rats [1]; 2 mg/kg i.p.): 3.4 ± 1.3 | No. of punishable drinkings (outbred white male rats; 2.0 mg/kg i.p.): 372.71 ± 27.81 | Side effects at the anxiolytic dose (in words) (outbred white male rats; therapeutic dose of 2 mg/kg): sedation, reduction in motion activity and impaired coordination | Sedative effect in elevated plus-maze (in words) (white outbred male rats [2]; 2 mg/kg i.p.): sedative, depriming effect | Latent time (white outbred male rats [2]; 2.0 mg/kg i.p.): 7.68 ± 2.0 s | Number of entries into bright arms (white outbred male rats [2]; 2.0 mg/kg i.p.): 2.12 ± 1.08 | Number of entries into dark arms (white outbred male rats [2]; 2.0 mg/kg i.p.): 2.20 ± 0.47 | Time in bright arms (white outbred male rats [2]; 2.0 mg/kg i.p.): 25.6 ± 6.87 s | Total number of crossings (white outbred male rats [2]; 2.0 mg/kg i.p.): 4.32 ± 1.01

Cc1ccc2c(c1)c1c(n2CCc2ccc(C)nc2)CCN(C)C1 [Dimebon, 2,8-dimethyl-5-[2-(6-methyl-3-pyridyl)ethyl]-2,3,4,5-tetrahydro-1H-pyrido[4,3-b]indole]
Exits to the center of the field (white outbred male rats [1]; 0.1 mg/kg i.p.): 0.8 ± 0.3 | Horizontal activity (white outbred male rats [1]; 0.1 mg/kg i.p.): 21.7 ± 5.9 | Surveyed holes (white outbred male rats [1]; 0.1 mg/kg i.p.): 12.3 ± 1.7 | Vertical activity (white outbred male rats [1]; 0.1 mg/kg i.p.): 7.8 ± 1.3 | Exits to the center of the field (white outbred male rats [1]; 2 mg/kg i.p.): 1.5 ± 0.2 | Horizontal activity (white outbred male rats [1]; 2 mg/kg i.p.): 20.3 ± 6.1 | Surveyed holes (white outbred male rats [1]; 2 mg/kg i.p.): 11.2 ± 2.6 | Vertical activity (white outbred male rats [1]; 2 mg/kg i.p.): 6.9 ± 3.2 | Exits to the center of the field (white outbred male rats [1]; 5 mg/kg i.p.): 2.2 ± 0.3 | Horizontal activity (white outbred male rats [1]; 5 mg/kg i.p.): 19.2 ± 2.4 | Surveyed holes (white outbred male rats [1]; 5 mg/kg i.p.): 13.5 ± 1.9 | Vertical activity (white outbred male rats [1]; 5 mg/kg i.p.): 9.3 ± 2.4 | Effect on number of horizontal and vertical movements and surveyed holes (in words) (white outbred male rats [1]; doses of 0.1, 2 and 5 mg/kg): did not cause a decrease | Anxiolytic effect in the open field test (in words) (white outbred male rats [1]; doses of 2 and 5 mg/kg): significant, pronounced anxiolytic effect | Effect on NMDA receptors (NMDA receptors): blocking | No. of punishable drinkings (outbred white male rats; 0.05 mg/kg i.p.): 171.31 ± 15.67 | No. of punishable drinkings (outbred white male rats; 0.1 mg/kg i.p.): 261.18 ± 29.74 | No. of punishable drinkings (outbred white male rats; 2.0 mg/kg i.p.): 354.25 ± 32.49 | No. of punishable drinkings (outbred white male rats; 5.0 mg/kg i.p.): 405.33 ± 26.35 | Change in punishable drinkings versus control (in words) (outbred white male rats; dose range 0.1 to 5 mg/kg i.p.): statistically significant increase | Sedative and muscle relaxant side effects (in words) (outbred white male rats; doses 0.1-5.0 mg/kg): lacks the sedative and muscle relaxant side effects | Time spent in the open, unprotected arms relative to control (in words) (SAM-P/10 mice; 0.05 mg/kg): doubled | Latent time (SAM-P/10 mice; 0.05 mg/kg i.p.): 7.5 ± 1.5 s | Number of entries into bright arms (SAM-P/10 mice; 0.05 mg/kg i.p.): 1.9 ± 1.0 | Number of entries into dark arms (SAM-P/10 mice; 0.05 mg/kg i.p.): 5.86 ± 1.53 | Time in bright arms (SAM-P/10 mice; 0.05 mg/kg i.p.): 8.7 ± 3.3 s | Total number of crossings (SAM-P/10 mice; 0.05 mg/kg i.p.): 11.7 ± 1.5 | Increase in the number of entries into the open arms (SAM-P/10 mice; 2 mg/kg): more than 4 fold | Increase in the time spent in the open arms (SAM-P/10 mice; 2 mg/kg): more than 4 fold | Latent time (SAM-P/10 mice; 2.0 mg/kg i.p.): 6.0 ± 1.4 s | Number of entries into bright arms (SAM-P/10 mice; 2.0 mg/kg i.p.): 4.2 ± 1.1 | Number of entries into dark arms (SAM-P/10 mice; 2.0 mg/kg i.p.): 7.10 ± 3.21 | Time in bright arms (SAM-P/10 mice; 2.0 mg/kg i.p.): 17.7 ± 5.2 s | Total number of crossings (SAM-P/10 mice; 2.0 mg/kg i.p.): 18.1 ± 5.3 | Effect on transmembrane currents caused by activation of the AMPA receptors (AMPA receptors): potentiates | Time spent inside the open arms relative to control (white outbred male rats [2]; 0.1 mg/kg i.p.): nearly five times as long as the control | Latent time (white outbred male rats [2]; 0.1 mg/kg i.p.): 3.43 ± 0.53 s | Number of entries into bright arms (white outbred male rats [2]; 0.1 mg/kg i.p.): 1.86 ± 1.00 | Number of entries into dark arms (white outbred male rats [2]; 0.1 mg/kg i.p.): 5.86 ± 1.53 | Time in bright arms (white outbred male rats [2]; 0.1 mg/kg i.p.): 20.00 ± 7.75 s | Total number of crossings (white outbred male rats [2]; 0.1 mg/kg i.p.): 7.71 ± 2.25 | Increase in the number of entries into the open arms (white outbred male rats [2]; 2 mg/kg i.p.): more than twice | Latent time (white outbred male rats [2]; 2.0 mg/kg i.p.): 2.93 ± 0.41 s | Number of entries into bright arms (white outbred male rats [2]; 2.0 mg/kg i.p.): 4.25 ± 1.18 | Number of entries into dark arms (white outbred male rats [2]; 2.0 mg/kg i.p.): 7.10 ± 3.21 | Time in bright arms (white outbred male rats [2]; 2.0 mg/kg i.p.): 26.34 ± 8.12 s | Total number of crossings (white outbred male rats [2]; 2.0 mg/kg i.p.): 11.60 ± 3.30 | Increase in total number of crossings (white outbred male rats [2]; 2 mg/kg i.p., P≦0.05): 2 times

From patent US20120101121A1, “DRUG DEMONSTRATING ANXIOLYTIC EFFECT BASED ON HYDROGENATED PYRIDO (4,3-B) INDOLES, ITS PHARMACOLOGICAL COMPOUND AND APPLICATION METHOD” (Medivation Neurology ,Inc., priority 2007, published 2012)
